Molecular target: T1, G. lamblia aldose reductase (Giardia duodenalis, UniProt A8BGX6)
T1 construct: gene GL50803_007260; full-length; E. coli BL21(DE3); observed Ser0-Asp313; dimer
T1 sequence (A8BGX6 1-313): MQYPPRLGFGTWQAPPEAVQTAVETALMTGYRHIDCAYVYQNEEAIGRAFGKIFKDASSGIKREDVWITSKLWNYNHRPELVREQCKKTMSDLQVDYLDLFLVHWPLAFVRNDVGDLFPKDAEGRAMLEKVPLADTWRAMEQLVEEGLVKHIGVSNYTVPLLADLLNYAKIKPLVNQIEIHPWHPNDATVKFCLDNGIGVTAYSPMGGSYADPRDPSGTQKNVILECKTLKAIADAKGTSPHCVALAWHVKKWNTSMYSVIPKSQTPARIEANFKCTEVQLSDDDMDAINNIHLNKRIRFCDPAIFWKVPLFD
Assay: X-ray crystallography, […] Å
Assay type: binding
Conditions: co-purified (none added); crystals from 20% PEG 3350, 200 mM sodium formate, 100 mM Bis-Tris propane; cofactor site, Arg269 and His242

Q: With `NC(=O)c1ccc[n+]([C@@H]2O[C@H](COP(=O)(O)OP(=O)(O)OC[C@H]3O[C@@H](n4cnc5c(N)ncnc54)[C@H](OP(=O)(O)O)[C@@H]3O)[C@@H](O)[C@H]2O)c1` [NADP^+] as the compound, how does the “X-ray crystallography, 1.75 Å” value read?
A: One NADP^+ molecule and one ethylene glycol molecule were modelled in each chain
